Measured values: patent US8362022B2, “Selective subtype alpha 2 adrenergic agents and methods for use thereof” (Allergan, Inc., priority 2008, dated 2013)

Tests used:
alpha 2B receptor = biological target: T1, alpha 2B receptor (Homo sapiens, UniProt P18089); assay: RSAT assay (Receptor Selection and Amplification Technology), Alpha 2B; format: cell-based; details: RSAT, Table 1
T1 construct: expressed in transfected cells; host or cells: NIH-3T3
T1 sequence (P18089 1-450): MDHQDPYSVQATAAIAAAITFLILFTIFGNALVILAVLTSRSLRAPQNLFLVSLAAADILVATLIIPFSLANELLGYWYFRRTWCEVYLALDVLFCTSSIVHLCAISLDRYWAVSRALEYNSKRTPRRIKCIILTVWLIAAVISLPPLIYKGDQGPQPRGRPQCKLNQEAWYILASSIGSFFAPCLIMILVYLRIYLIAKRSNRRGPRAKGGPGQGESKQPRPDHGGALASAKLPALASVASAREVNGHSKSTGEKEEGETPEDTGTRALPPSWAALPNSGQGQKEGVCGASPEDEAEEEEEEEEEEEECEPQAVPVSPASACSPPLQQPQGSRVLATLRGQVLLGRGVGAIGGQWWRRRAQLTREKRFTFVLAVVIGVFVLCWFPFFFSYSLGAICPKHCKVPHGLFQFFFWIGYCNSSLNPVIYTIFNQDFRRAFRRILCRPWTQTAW
Method: (§1) The RSAT assay measures a receptor-mediated loss of contact inhibition that results in selective proliferation of receptor-containing cells in a mixed population of confluent cells. The increase in cell number is assessed with an appropriate transfected marker gene such as β-galactosidase, the activity of which can be easily measured in a 96-well format. Receptors that activate the G protein, Gq, elicit this response. Alpha 2 receptors, which normally couple to Gi, activate the RSAT response when coexpressed with a hybrid Gq protein that has a Gi receptor recognition domain, called Gq/i5.
(§2) NIH-3T3 cells are plated at a density of 2×10^6 cells in 15 cm dishes and maintained in Dulbecco's modified Eagle's medium supplemented with 10% calf serum. One day later, cells are cotransfected by calcium phosphate precipitation with mammalian expression plasmids encoding p-SV-β-galactosidase (5-10 μg), receptor (1-2 μg) and G protein (1-2 μg). 40 μg salmon sperm DNA may also be included in the transfection mixture. […] Cells are thawed and 100 μl added to 100 μL aliquots of various concentrations of drugs in triplicate in 96-well dishes. Incubations continue 72-96 hr at 37° C. After washing with phosphate-buffered saline, β-galactosidase enzyme activity is determined by adding 200 μL of the chromogenic substrate (consisting of 3.5 mM o-nitrophenyl-β-D-galactopyranoside and 0.5% nonidet P-40 in phosphate buffered saline), incubating overnight at 30° C. and measuring optical density at 420 nm. The absorbance is a measure of enzyme activity, which depends on cell number and reflects a receptor-mediated cell proliferation. The efficacy or intrinsic activity is calculated as a ratio of the maximal effect of the drug to the maximal effect of a standard full agonist for each receptor subtype. Brimonidine, the chemical structure of which is shown below, is used as the standard agonist for the alpha 2B and alpha 2C receptors. […] NA stands for “not active” at concentrations less than 3-10 micromolar.

Alpha 1A = biological target: T2, Alpha 1A (Homo sapiens, UniProt P35348); assay: RSAT assay (Receptor Selection and Amplification Technology), Alpha 1A; format: cell-based; details: value in parentheses, ratio of maximal effect of drug to maximal effect of standard full agonist
T2 sequence (P35348 1-466): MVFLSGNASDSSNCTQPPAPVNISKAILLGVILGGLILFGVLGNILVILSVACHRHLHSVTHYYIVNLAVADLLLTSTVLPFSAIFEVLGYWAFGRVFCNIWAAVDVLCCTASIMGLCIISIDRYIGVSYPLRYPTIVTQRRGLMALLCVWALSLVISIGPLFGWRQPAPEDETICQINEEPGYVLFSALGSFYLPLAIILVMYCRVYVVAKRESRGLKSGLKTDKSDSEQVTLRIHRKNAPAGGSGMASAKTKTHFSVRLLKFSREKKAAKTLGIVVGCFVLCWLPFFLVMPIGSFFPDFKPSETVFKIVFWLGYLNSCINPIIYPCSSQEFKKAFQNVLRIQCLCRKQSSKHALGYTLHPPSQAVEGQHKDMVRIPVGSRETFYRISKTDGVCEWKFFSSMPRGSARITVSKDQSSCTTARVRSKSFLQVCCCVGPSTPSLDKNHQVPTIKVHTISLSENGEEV
Method: as §1, §2

Cc1cccc(C(Cc2cccnc2)/N=C2/NCCO2)c1C (stereo not drawn) [Compound 21, 1-(2,3-Dimethylphenyl)-N-(oxazolidin-2-ylidene)-2-(pyridin-3-yl)ethanamine] was tested, and the EC50 (alpha 2B receptor; transfected NIH-3T3 cells with Gq/i5, read-out: potency nM (EC50) Alpha 2B) was 5 nM, the “Intrinsic Activity efficacy Alpha 2B” value (alpha 2B receptor; value in parentheses, ratio of maximal effect to that of brimonidine) was 1.2 and the “Intrinsic Activity efficacy Alpha 1A” value (Alpha 1A) was 0.6.
